Source: the NIST ThermoML archive (doi:10.1021/acs.jced.7b00176)

Conditions: Liquid, Vibrating tube method

COCCOCCOC [2,5,8-trioxanonane]
Conditions | mass density [kg/m3]
283.67 K, 40000 kPa | 978.49
283.67 K, 60000 kPa | 989.12
283.67 K, 80000 kPa | 998.75
283.67 K, 100000 kPa | 1007.71
283.68 K, 10000 kPa | 960.29
283.68 K, 20000 kPa | 966.68
283.68 K, 30000 kPa | 972.8
283.69 K, 100 kPa | 953.48
283.69 K, 1000 kPa | 954.15
283.69 K, 5000 kPa | 956.94
303.47 K, 100 kPa | 933.69
303.47 K, 1000 kPa | 934.43
303.48 K, 5000 kPa | 937.55
303.48 K, 10000 kPa | 941.31
303.49 K, 20000 kPa | 948.42
303.49 K, 30000 kPa | 955.17
303.49 K, 40000 kPa | 961.41
303.49 K, 60000 kPa | 973.02
303.5 K, 80000 kPa | 983.33
303.5 K, 100000 kPa | 992.97
322.62 K, 100 kPa | 914.41
322.62 K, 1000 kPa | 915.3
322.62 K, 5000 kPa | 918.77
322.62 K, 10000 kPa | 923.02
322.62 K, 20000 kPa | 930.99
322.62 K, 30000 kPa | 938.31
322.62 K, 40000 kPa | 945.16
322.62 K, 60000 kPa | 957.74
322.62 K, 80000 kPa | 968.98
322.62 K, 100000 kPa | 979.2
342.49 K, 100 kPa | 894.03
342.49 K, 1000 kPa | 894.98
342.49 K, 5000 kPa | 898.96
342.5 K, 10000 kPa | 903.66
342.5 K, 20000 kPa | 912.57
342.51 K, 30000 kPa | 920.68
342.51 K, 40000 kPa | 928.18
342.51 K, 60000 kPa | 941.77
342.51 K, 80000 kPa | 953.82
342.52 K, 100000 kPa | 964.68
362.51 K, 100 kPa | 873.45
362.51 K, 1000 kPa | 874.46
362.51 K, 5000 kPa | 879.02
362.52 K, 10000 kPa | 884.41
362.52 K, 20000 kPa | 894.33
362.52 K, 30000 kPa | 903.29
362.52 K, 40000 kPa | 911.53
362.53 K, 60000 kPa | 926.3
362.53 K, 80000 kPa | 939.26
362.53 K, 100000 kPa | 950.89
